The values below come from US5095012A, “Antibiotic C-7 catechol-substituted cephalosporin compounds, compositions, and method of use thereof” (Bristol-Myers Squibb Company, priority 1990, dated 1992).

SMILES strings stand for the structures. In brackets after ≈: the same amount, converted by molar mass.

The test system of assay [1] is Penicillin(PC)-sensitive S. aureus (5 strains). Briefly: MIC by two-fold serial agar dilution, group Gp-Ia. Particulars: Staphylococcus aureus, Gp-Ia (5 strains), Mueller-Hinton agar, read-out: Geometric mean of MIC, Gp-Ia. The format is cell-based. The method, then: (§1) Minimum inhibitory concentrations (MICs) for the compounds in the above examples were determined against thirty two strains of test organisms by a two-fold serial agar dilution method in Mueller-Hinton agar. Geometric means of MICs were calculated against six groups of the test organisms which are classified as follows and summarized in Table 1.
Gp-Ia Penicillin(PC)-sensitive S. aureus (5 strains).

The subject of assay [2] is Penicillin(PC)-resistant S. aureus (5). Briefly: MIC by two-fold serial agar dilution, group Gp-Ib. The format is cell-based. To be noted: Staphylococcus aureus, Gp-Ib (5), Mueller-Hinton agar, read-out: Geometric mean of MIC, Gp-Ib. The method, then:
as §1
Gp-Ib Penicillin(PC)-resistant S. aureus (5).

For assay [3], the system named is Cephalothin(CET)-sensitive E. coli (2), Kl. pneumoniae (1) and Pr. mirabilis (2). Briefly: MIC by two-fold serial agar dilution, group Gn-Ia. Format: cell-based. To be noted: Gn-Ia (5), Mueller-Hinton agar, read-out: Geometric mean of MIC, Gn-Ia. The method, then:
as §1
Gn-Ia Cephalothin(CET)-sensitive E. coli (2), Kl.
pneumoniae (1) and Pr. mirabilis (2).

Assay [4] relates to Cephalothin(CET)-resistant E. coli (3) and Kl. pneumoniae (2). Briefly: MIC by two-fold serial agar dilution, group Gn-Ib. Format: cell-based. Particulars: Escherichia coli, read-out: Geometric mean of MIC, Gn-Ib. The method, then:
as §1
Gn-Ib Cephalothin(CET)-resistant E. coli (3) and Kl.

For assay [5], the system named is M. morganii (1), Ent. cloacae (2) and Ser. marcescens (2). The experiment in a line: MIC by two-fold serial agar dilution, group Gn-II. Format: cell-based. Particulars: Gn-II (5), Mueller-Hinton agar, read-out: Geometric mean of MIC, Gn-II. The method, then:
as §1
Gn-II M. morganii (1), Ent. cloacae (2) and Ser.

Another assay deals with Ps. aeruginosa (7). Briefly: MIC by two-fold serial agar dilution, group Gn-III. The format is cell-based. Particulars: Pseudomonas aeruginosa, Gn-III (7), Mueller-Hinton agar, read-out: Geometric mean of MIC, Gn-III. How it is done: as §1
Gn-III Ps. aeruginosa (7).

Assay [6] concerns S. aureus Smith. Briefly: In vivo antibacterial activity in infected mice, S. aureus Smith. Particulars: Staphylococcus aureus, im, just after the bacterial challenge, read-out: PD50, S. aureus Smith. The method, then: (§2) In vivo antibacterial activity was determined against three bacterial infections (S. aureus Smith, E. coli Juhl and P. aeruginosa A98483A) by intramuscular administration to mice just after the bacterial challenge. PD50 values are summarized in Table 2 in comparison with the MIC values against the corresponding organisms.

For assay [7], the system named is S. aureus Smith. The experiment in a line: MIC against S. aureus Smith. Format: cell-based. Particulars: Staphylococcus aureus. The method, then: as §1, §2
For assay [8], the system named is E. coli Juhl. Briefly: In vivo antibacterial activity in infected mice, E. coli Juhl. To be noted: Escherichia coli, im, just after the bacterial challenge, read-out: PD50, E. coli Juhl. The method, then: as §2
Assay [9] concerns E. coli Juhl. Briefly: MIC against E. coli Juhl. Format: cell-based. Particulars: Escherichia coli. How it is done:
as §1, §2

The subject of assay [10] is P. aeruginosa A9843A. Briefly: In vivo antibacterial activity in infected mice, P. aeruginosa A9843A. Particulars: Pseudomonas aeruginosa, im, read-out: PD50, P. aeruginosa A9843A. How it is done: as §2
Assay [11] has as its system P. aeruginosa A9843A. Briefly: MIC against P. aeruginosa A9843A. The format is cell-based. Particulars: Pseudomonas aeruginosa, read-out: MIC, P. aeruginosa A9843A. The method, then:
as §1, §2

For the compound `C[N+]1(CC2=C(C(=O)[O-])N3C(=O)C(NC(=O)C(=NOC(C(=O)O)c4ccc(O)c(O)c4)c4csc(N)n4)C3SC2)CCCC1` (stereo not drawn) [Ia, 7-[(2-(2-Aminothiazol-4-yl)-2[(Z)-[carboxy(3,4-dihydroxyphenyl)methyl]oxyimino]acetamido]-3-(1-methylpyrrolidinio)methyl-3-cephem-4-carboxylate], the MIC is 1.4 µg/mL (≈ 2.21 µM) in assay [1]; 3.1 µg/mL (≈ 4.9 µM) in assay [2]; 0.3 µg/mL (≈ 0.474 µM) in assay [3]; 0.4 µg/mL (≈ 0.632 µM) in [4]; 0.8 µg/mL (≈ 1.26 µM) in [5]; 1.6 µg/mL (≈ 2.53 µM) with Ps. aeruginosa (7). Further, the MIC amounted to 1.6 µg/mL (≈ 2.53 µM) in the assay with S. aureus Smith [7], 0.2 µg/mL (≈ 0.316 µM) against E. coli Juhl [9] and 1.6 µg/mL (≈ 2.53 µM) in the assay on P. aeruginosa A9843A [11]. The ED50 in the assay on S. aureus Smith [6] amounted to 5.6 mg/kg; with E. coli Juhl [8] it was 0.14 mg/kg; in the assay with P. aeruginosa A9843A [10], 6.3 mg/kg.
For `C/C=C\C1=C(C(=O)O)N2C(=O)C(NC(=O)/C(=N\OC(C(=O)O)c3ccc(O)c(O)c3)c3csc(N)n3)C2SC1` (stereo not drawn) [Ib], the minimal inhibitory concentration (MIC) was determined as 0.92 µg/mL (≈ 1.6 µM) in [1]; 2.1 µg/mL (≈ 3.65 µM) in assay [2]; 0.17 µg/mL (≈ 0.295 µM) in assay [3]; 0.35 µg/mL (≈ 0.608 µM) in [4]; 7.3 µg/mL (≈ 12.7 µM) in assay [5]; 5.1 µg/mL (≈ 8.86 µM) in the assay on Ps. aeruginosa (7). In addition, the minimal inhibitory concentration (MIC) worked out at 0.8 µg/mL (≈ 1.39 µM) against S. aureus Smith [7], 0.4 µg/mL (≈ 0.695 µM) against E. coli Juhl [9] and 3.1 µg/mL (≈ 5.39 µM) in the assay with P. aeruginosa A9843A [11]. The results for the ED50 with S. aureus Smith [6], in the assay with E. coli Juhl [8] and in the assay with P. aeruginosa A9843A [10] were 6.8 mg/kg, 1.5 mg/kg and 17 mg/kg, respectively.
Consider `Nc1nc(/C(=N/OC(C(=O)O)c2ccc(O)c(O)c2)C(=O)NC2C(=O)N3C(C(=O)[O-])=C(/C=C/C[n+]4ccccc4)CSC23)cs1` (stereo not drawn) [Ic], for which the MIC in assay [1] turned out to be 0.26 µg/mL (≈ 0.398 µM); in assay [2] it was 0.4 µg/mL (≈ 0.613 µM); in assay [3] it was 0.076 µg/mL (≈ 0.116 µM); in [4], 0.15 µg/mL (≈ 0.23 µM); in [5] it was 0.46 µg/mL (≈ 0.705 µM); in the assay on Ps. aeruginosa (7), 2.3 µg/mL (≈ 3.52 µM). Further, the MIC is 0.4 µg/mL (≈ 0.613 µM) with S. aureus Smith [7], 0.05 µg/mL (≈ 0.0766 µM) in the assay on E. coli Juhl [9] and 3.1 µg/mL (≈ 4.75 µM) in the assay on P. aeruginosa A9843A [11]. In addition, the ED50 was determined as 1.4 mg/kg in the assay on S. aureus Smith [6], 0.067 mg/kg in the assay with E. coli Juhl [8] and 12 mg/kg in the assay with P. aeruginosa A9843A [10].
For `Nc1nc(/C(=N/OCc2cc(O)c(O)cc2C(=O)O)C(=O)NC2C(=O)N3C(C(=O)[O-])=C(/C=C/C[n+]4ccccc4)CSC23)cs1` (stereo not drawn) [Id], the MIC in assay [1] turned out to be 0.61 µg/mL (≈ 0.935 µM); in assay [2] it was 1.6 µg/mL (≈ 2.45 µM); in assay [3] it was 0.087 µg/mL (≈ 0.133 µM); in assay [4] it was 0.17 µg/mL (≈ 0.26 µM); in [5], 0.46 µg/mL (≈ 0.705 µM); in the assay on Ps. aeruginosa (7), 0.88 µg/mL (≈ 1.35 µM). The MIC in the assay with S. aureus Smith [7] came out at 0.8 µg/mL (≈ 1.23 µM); with E. coli Juhl [9], 0.1 µg/mL (≈ 0.153 µM); with P. aeruginosa A9843A [11], 0.8 µg/mL (≈ 1.23 µM). The values for the ED50 in the assay with S. aureus Smith [6], with E. coli Juhl [8] and in the assay with P. aeruginosa A9843A [10] were 1 mg/kg, 0.017 mg/kg and 7.2 mg/kg, respectively.
As for `C[N+]1(CC2=C(C(=O)[O-])N3C(=O)C(NC(=O)/C(=N\OC(C(=O)O)c4ccc(O)c(O)c4)c4csc(N)n4)[C@H]3SC2)Cc2cc(O)c(O)cc2C1` (stereo partly drawn) [Ie, 7-[2-(2-Aminothiazol-4-yl)-2-[(Z)-[carboxy(3,4-dihydroxy-phenyl)methyl]oxyimino]acetamido]-3-(5,6-dihydroxy-2-methyl-2-isoindolinio)methyl-3-cephem-4-carboxylate], the minimum inhibitory concentration (MIC) in assay [1] is 8.3 µg/mL (≈ 11.6 µM); in [2] it was 13 µg/mL (≈ 18.2 µM); in assay [3], 0.46 µg/mL (≈ 0.645 µM); in assay [4], 0.46 µg/mL (≈ 0.645 µM); in assay [5] it was 1.6 µg/mL (≈ 2.24 µM); in the assay with Ps. aeruginosa (7), 0.3 µg/mL (≈ 0.421 µM). Also, the figures for the MIC in the assay on S. aureus Smith [7], with E. coli Juhl [9] and in the assay with P. aeruginosa A9843A [11] were 12.5 µg/mL (≈ 17.5 µM), 0.8 µg/mL (≈ 1.12 µM) and 0.4 µg/mL (≈ 0.561 µM), respectively. Also, the ED50 with S. aureus Smith [6] stood at 2.4 mg/kg; with E. coli Juhl [8] it was 0.045 mg/kg; with P. aeruginosa A9843A [10] it was 2.1 mg/kg.
